Results published in ChEMBL document CHEMBL5442219.

What was measured:
Conditions in all cases: Compound concentration 10 µM
[1] = target: Sigma non-opioid intracellular receptor 1 (Homo sapiens) (UniProt Q99720)
Description: PDSP Primary Binding target: SIGMAR1 - Compounds are tested at 10 uM concentration, plate are incubated at room temperature in the dark for 90 minutes. Reaction are stopped by vacuum filtration onto 0.3% polyethyleneimine soaked filter mats using Filtermate harvester. Scintilation cocktail is then melted onto microwave-dried filters on a hot plate and the radio activity is counted in Microbia counter.

[2] = target: Sigma intracellular receptor 2 (Homo sapiens) (UniProt Q5BJF2)
Description: PDSP Primary Binding target: TMEM97 - Compounds are tested at 10 uM concentration, plate are incubated at room temperature in the dark for 90 minutes. Reaction are stopped by vacuum filtration onto 0.3% polyethyleneimine soaked filter mats using Filtermate harvester. Scintilation cocktail is then melted onto microwave-dried filters on a hot plate and the radio activity is counted in Microbia counter.

[3] = target: T1, Muscarinic acetylcholine receptor M2 (Homo sapiens) (UniProt P08172)
T1 sequence (whole entry): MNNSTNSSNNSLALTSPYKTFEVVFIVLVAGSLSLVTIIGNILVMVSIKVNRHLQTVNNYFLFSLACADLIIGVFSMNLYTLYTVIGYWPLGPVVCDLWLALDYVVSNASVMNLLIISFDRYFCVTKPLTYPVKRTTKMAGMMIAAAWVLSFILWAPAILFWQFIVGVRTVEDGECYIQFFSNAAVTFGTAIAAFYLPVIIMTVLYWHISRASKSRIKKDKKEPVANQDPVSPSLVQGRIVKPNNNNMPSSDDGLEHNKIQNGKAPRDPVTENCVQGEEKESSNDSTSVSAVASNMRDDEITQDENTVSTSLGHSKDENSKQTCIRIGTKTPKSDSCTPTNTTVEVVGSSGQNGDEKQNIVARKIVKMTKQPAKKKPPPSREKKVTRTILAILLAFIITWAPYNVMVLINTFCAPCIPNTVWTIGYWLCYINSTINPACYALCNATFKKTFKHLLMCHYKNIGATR
Description: PDSP Primary Binding target: CHRM2 - Compounds are tested at 10 uM concentration, plate are incubated at room temperature in the dark for 90 minutes. Reaction are stopped by vacuum filtration onto 0.3% polyethyleneimine soaked filter mats using Filtermate harvester. Scintilation cocktail is then melted onto microwave-dried filters on a hot plate and the radio activity is counted in Microbia counter.

[4] = target: T2, Muscarinic acetylcholine receptor M1 (Homo sapiens) (UniProt P11229)
T2 sequence (whole entry): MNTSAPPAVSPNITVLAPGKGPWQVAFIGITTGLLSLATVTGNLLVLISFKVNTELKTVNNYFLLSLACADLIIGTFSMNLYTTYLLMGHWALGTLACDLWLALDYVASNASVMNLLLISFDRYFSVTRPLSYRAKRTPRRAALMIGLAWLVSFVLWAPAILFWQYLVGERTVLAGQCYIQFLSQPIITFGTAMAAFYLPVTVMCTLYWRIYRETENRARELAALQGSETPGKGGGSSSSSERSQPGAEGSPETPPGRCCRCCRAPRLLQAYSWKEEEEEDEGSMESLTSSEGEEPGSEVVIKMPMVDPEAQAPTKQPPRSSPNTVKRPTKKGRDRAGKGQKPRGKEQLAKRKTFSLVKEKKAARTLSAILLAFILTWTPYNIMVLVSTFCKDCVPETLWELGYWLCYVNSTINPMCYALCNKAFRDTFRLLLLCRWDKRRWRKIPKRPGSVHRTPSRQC
Description: PDSP Primary Binding target: CHRM1 - Compounds are tested at 10 uM concentration, plate are incubated at room temperature in the dark for 90 minutes. Reaction are stopped by vacuum filtration onto 0.3% polyethyleneimine soaked filter mats using Filtermate harvester. Scintilation cocktail is then melted onto microwave-dried filters on a hot plate and the radio activity is counted in Microbia counter.

[5] = target: T3, Alpha-1D adrenergic receptor (Homo sapiens) (UniProt P25100)
T3 sequence (whole entry): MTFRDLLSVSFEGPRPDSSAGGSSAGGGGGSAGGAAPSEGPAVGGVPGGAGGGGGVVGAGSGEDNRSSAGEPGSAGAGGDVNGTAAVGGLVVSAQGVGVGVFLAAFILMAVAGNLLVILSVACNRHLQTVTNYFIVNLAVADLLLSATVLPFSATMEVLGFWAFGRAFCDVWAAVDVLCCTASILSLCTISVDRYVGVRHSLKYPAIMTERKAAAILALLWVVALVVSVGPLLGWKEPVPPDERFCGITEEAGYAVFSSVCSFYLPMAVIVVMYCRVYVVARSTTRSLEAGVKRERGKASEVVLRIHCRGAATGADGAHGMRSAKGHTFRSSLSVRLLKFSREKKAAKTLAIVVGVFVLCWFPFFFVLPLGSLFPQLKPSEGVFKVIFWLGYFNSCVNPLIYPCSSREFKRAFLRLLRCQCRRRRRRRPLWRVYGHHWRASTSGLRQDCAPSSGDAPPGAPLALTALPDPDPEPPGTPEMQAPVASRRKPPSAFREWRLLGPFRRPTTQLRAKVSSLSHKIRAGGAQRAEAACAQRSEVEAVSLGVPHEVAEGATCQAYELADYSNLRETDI
Description: PDSP Primary Binding target: ADRA1D - Compounds are tested at 10 uM concentration, plate are incubated at room temperature in the dark for 90 minutes. Reaction are stopped by vacuum filtration onto 0.3% polyethyleneimine soaked filter mats using Filtermate harvester. Scintilation cocktail is then melted onto microwave-dried filters on a hot plate and the radio activity is counted in Microbia counter.

[6] = target: 5-hydroxytryptamine receptor 2B (Homo sapiens) (UniProt P41595)
Sequence of 5-hydroxytryptamine receptor 2B (Homo sapiens) (P41595 whole entry): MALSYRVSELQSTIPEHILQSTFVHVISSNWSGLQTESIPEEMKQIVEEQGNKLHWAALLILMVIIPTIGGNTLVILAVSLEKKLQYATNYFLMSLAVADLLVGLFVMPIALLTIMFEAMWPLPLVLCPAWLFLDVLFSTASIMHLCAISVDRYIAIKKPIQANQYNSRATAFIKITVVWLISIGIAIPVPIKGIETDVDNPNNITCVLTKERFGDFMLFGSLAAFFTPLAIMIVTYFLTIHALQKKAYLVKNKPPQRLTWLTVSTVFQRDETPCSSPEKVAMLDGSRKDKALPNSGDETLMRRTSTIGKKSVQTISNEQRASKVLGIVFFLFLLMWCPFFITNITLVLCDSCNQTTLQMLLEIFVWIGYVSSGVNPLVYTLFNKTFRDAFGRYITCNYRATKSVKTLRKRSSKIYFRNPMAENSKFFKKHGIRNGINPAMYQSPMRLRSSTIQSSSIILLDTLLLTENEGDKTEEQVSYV
Description: PDSP Primary Binding target: HTR2B - Compounds are tested at 10 uM concentration, plate are incubated at room temperature in the dark for 90 minutes. Reaction are stopped by vacuum filtration onto 0.3% polyethyleneimine soaked filter mats using Filtermate harvester. Scintilation cocktail is then melted onto microwave-dried filters on a hot plate and the radio activity is counted in Microbia counter.

[7] = target: Delta-type opioid receptor (Homo sapiens) (UniProt P41143)
Sequence of Delta-type opioid receptor (Homo sapiens) (P41143 whole entry): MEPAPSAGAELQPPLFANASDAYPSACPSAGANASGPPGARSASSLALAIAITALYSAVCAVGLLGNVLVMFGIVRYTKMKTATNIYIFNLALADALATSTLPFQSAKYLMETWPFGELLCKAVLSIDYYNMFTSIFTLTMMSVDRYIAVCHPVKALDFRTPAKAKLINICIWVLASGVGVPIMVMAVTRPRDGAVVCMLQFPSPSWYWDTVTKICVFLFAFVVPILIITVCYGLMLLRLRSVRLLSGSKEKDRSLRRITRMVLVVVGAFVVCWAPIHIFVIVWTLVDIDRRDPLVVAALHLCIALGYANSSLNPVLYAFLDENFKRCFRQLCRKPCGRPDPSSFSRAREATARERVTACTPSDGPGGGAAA
Description: PDSP Primary Binding target: OPRD1 - Compounds are tested at 10 uM concentration, plate are incubated at room temperature in the dark for 90 minutes. Reaction are stopped by vacuum filtration onto 0.3% polyethyleneimine soaked filter mats using Filtermate harvester. Scintilation cocktail is then melted onto microwave-dried filters on a hot plate and the radio activity is counted in Microbia counter.

[8] = target: T4, Muscarinic acetylcholine receptor M5 (Homo sapiens) (UniProt P08912)
T4 sequence (whole entry): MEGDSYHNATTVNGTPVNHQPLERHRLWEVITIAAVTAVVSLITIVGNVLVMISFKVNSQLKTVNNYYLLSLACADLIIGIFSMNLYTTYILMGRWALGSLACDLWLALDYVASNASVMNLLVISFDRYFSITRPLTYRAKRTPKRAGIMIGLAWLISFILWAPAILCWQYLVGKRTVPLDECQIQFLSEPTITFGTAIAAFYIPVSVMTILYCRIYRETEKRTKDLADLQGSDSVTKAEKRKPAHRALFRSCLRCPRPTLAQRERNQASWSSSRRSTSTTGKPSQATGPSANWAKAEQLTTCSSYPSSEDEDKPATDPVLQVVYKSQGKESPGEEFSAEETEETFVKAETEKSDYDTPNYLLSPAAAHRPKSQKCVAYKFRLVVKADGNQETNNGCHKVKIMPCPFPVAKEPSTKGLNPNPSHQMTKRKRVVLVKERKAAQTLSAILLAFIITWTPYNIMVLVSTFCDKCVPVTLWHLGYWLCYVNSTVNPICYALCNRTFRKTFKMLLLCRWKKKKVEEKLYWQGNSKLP
Description: PDSP Primary Binding target: CHRM5 - Compounds are tested at 10 uM concentration, plate are incubated at room temperature in the dark for 90 minutes. Reaction are stopped by vacuum filtration onto 0.3% polyethyleneimine soaked filter mats using Filtermate harvester. Scintilation cocktail is then melted onto microwave-dried filters on a hot plate and the radio activity is counted in Microbia counter.

[9] = target: T5, D(4) dopamine receptor (Homo sapiens) (UniProt P21917)
T5 sequence (whole entry): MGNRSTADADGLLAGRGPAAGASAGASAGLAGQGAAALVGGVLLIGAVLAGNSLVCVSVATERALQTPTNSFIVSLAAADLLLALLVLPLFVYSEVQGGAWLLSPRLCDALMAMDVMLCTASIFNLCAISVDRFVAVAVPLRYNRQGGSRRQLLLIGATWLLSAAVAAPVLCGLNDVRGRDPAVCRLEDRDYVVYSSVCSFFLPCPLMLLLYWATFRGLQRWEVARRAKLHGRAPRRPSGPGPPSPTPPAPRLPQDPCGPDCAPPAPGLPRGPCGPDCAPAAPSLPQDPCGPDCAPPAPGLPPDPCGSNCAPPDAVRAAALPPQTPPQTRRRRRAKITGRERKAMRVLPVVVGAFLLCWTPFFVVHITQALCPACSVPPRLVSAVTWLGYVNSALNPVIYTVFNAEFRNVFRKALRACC
Description: PDSP Primary Binding target: DRD4 - Compounds are tested at 10 uM concentration, plate are incubated at room temperature in the dark for 90 minutes. Reaction are stopped by vacuum filtration onto 0.3% polyethyleneimine soaked filter mats using Filtermate harvester. Scintilation cocktail is then melted onto microwave-dried filters on a hot plate and the radio activity is counted in Microbia counter.

Sequence of Sigma non-opioid intracellular receptor 1 (Homo sapiens) (Q99720 whole entry): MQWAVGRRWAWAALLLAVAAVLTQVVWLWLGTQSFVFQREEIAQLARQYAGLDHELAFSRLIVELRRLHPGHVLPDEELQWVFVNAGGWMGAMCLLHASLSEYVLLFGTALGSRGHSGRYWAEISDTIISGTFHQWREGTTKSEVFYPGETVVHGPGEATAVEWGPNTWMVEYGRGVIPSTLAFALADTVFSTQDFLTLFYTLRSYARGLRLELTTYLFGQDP
Sequence of Sigma intracellular receptor 2 (Homo sapiens) (Q5BJF2 whole entry): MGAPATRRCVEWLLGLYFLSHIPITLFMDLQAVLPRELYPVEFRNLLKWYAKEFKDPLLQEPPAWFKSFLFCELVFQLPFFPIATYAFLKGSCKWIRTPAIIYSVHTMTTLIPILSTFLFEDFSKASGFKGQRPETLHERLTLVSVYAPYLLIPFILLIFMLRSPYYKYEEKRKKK

CC(C)NC(=O)c1ccc(C#Cc2ccncc2)cn1
inhibition [1]: 68.4% | inhibition [2]: 8.09% | inhibition [3]: 53.1% | inhibition [4]: -0.6% | inhibition [5]: 13.3% | inhibition [6]: 34.4% | inhibition [7]: -3.71% | inhibition [8]: 43.2%

O=c1ccc2ccc(OCCCCN3CCN(c4cccc5sccc45)CC3)cc2[nH]1
inhibition [2]: 95.6% | inhibition [3]: -3.44% | inhibition [4]: 30.3% | inhibition [5]: 92.5% | inhibition [6]: 96% | inhibition [7]: -1.82% | inhibition [8]: 38.2% | inhibition [9]: 101%

O=C(O)c1cc(-c2ccc(C3CCNCC3)cc2)c2ccc(-c3ccc(C(F)(F)F)cc3)cc2c1
inhibition [1]: 31.5% | inhibition [2]: 81.1% | inhibition [3]: 10.7% | inhibition [4]: 23.8% | inhibition [5]: 16.7% | inhibition [6]: 26.6% | inhibition [7]: 14% | inhibition [8]: 51.9%

O=C1O[C@]2(CC[C@H](C(=O)Nc3ccn(-c4ccccc4F)n3)CC2)c2cnccc21
inhibition [1]: 4.97% | inhibition [2]: -5.33% | inhibition [3]: -5.81% | inhibition [4]: -6% | inhibition [6]: 17.5% | inhibition [7]: -5.86% | inhibition [8]: -6.98%

CC(C)Oc1ccccc1C(=O)Nc1ccccc1C(=O)Nc1cccc(S(=O)(=O)C(F)(F)F)c1
inhibition [2]: -6.23% | inhibition [3]: -6.99% | inhibition [4]: -6.91% | inhibition [7]: -2.57% | inhibition [8]: -4.83% | inhibition [9]: 43%

FC(F)(F)c1c(N2CCC(c3ccccc3)CC2)ccn2c(CC3CC3)nnc12
inhibition [1]: 64.7% | inhibition [2]: 22.9% | inhibition [3]: 7.85% | inhibition [4]: -1.64% | inhibition [5]: -3.82% | inhibition [6]: -9.2% | inhibition [8]: -6.28%

FC(F)(F)c1cccc(-c2noc(-c3cc(-c4ccccc4)c(C(F)(F)F)s3)n2)c1
inhibition [1]: -0.34% | inhibition [3]: -7.48% | inhibition [4]: 21.5% | inhibition [5]: 1.55% | inhibition [6]: 10.1% | inhibition [8]: -4.18% | inhibition [9]: -0.65%

OCc1cc(C(O)CNCCCCCCOCCCCc2ccccc2)ccc1O (stereo not given)
inhibition [2]: 102% | inhibition [3]: 3.27% | inhibition [4]: 19.1% | inhibition [5]: 65.8% | inhibition [6]: 90.4% | inhibition [7]: 5.6% | inhibition [8]: 60.2% | inhibition [9]: 57.4%

c1cc(CN2CCCNCCNCCCNCC2)ccc1CN1CCCNCCNCCCNCC1
inhibition [1]: 15.3% | inhibition [2]: 22.5% | inhibition [3]: 67.7% | inhibition [4]: 62.3% | inhibition [5]: -0.54% | inhibition [7]: -4.5% | inhibition [8]: 1.58%

NC[C@H](O)c1ccc(O)c(O)c1
inhibition [1]: 39.1% | inhibition [2]: 24.6% | inhibition [3]: -6.81% | inhibition [4]: -6.89% | inhibition [5]: 64.8% | inhibition [6]: 24.8% | inhibition [7]: -5.14% | inhibition [9]: 46.9%

CN(C)C(=O)N[C@H]1CC[C@H](CCN2CCN(c3cccc(Cl)c3Cl)CC2)CC1
inhibition [2]: 88.3% | inhibition [3]: 29.1% | inhibition [4]: 11.8% | inhibition [5]: 89.4% | inhibition [6]: 99% | inhibition [7]: 11.3% | inhibition [8]: 59.3% | inhibition [9]: 103%

CCC[C@H](Oc1cc(C)c(-n2cc(C(F)(F)F)cn2)c(C)c1)c1ccc(C(=O)NCCC(=O)O)cc1
inhibition [1]: 1.84% | inhibition [2]: 2.23% | inhibition [3]: -6.26% | inhibition [4]: 28% | inhibition [7]: 27% | inhibition [8]: 70.1% | inhibition [9]: -1.34%

O=C(O)Cn1c(C(=O)Nc2nc(-c3ccccc3Cl)cs2)cc2ccccc21
inhibition [1]: 9.14% | inhibition [2]: 36.6% | inhibition [3]: 0.82% | inhibition [4]: 6.86% | inhibition [5]: -3.75% | inhibition [6]: 0.94% | inhibition [7]: 19% | inhibition [9]: -9.74%

O=C(O)C1CN(Cc2ccc(OCc3ccc(Cl)c(Cl)c3)cc2)C1
inhibition [1]: 76.9% | inhibition [3]: -5.07% | inhibition [4]: 2.35% | inhibition [5]: -5.42% | inhibition [6]: 10.2% | inhibition [8]: -2.07% | inhibition [9]: -0.79%

O=C(O)CC1CCC2(CC1)CCN(c1cc(OC(F)(F)F)ccc1Cl)CC2
inhibition [1]: -0.46% | inhibition [2]: -1.25% | inhibition [3]: 27.1% | inhibition [4]: -1.08% | inhibition [7]: -0.66% | inhibition [8]: -6.92%
